According to patent US6710190B1, “3-heteroarylalkyl substituted gaba analogs” (Warner-Lambert Company, priority 1999, dated 2004):
Like-named read-outs stand apart in the source and are kept apart here.

Experiments:
[1] = target: T1, α2δ subunit derived from porcine brain tissue (Sus scrofa, UniProt A0A287BIN3); test: [3H]gabapentin radioligand binding assay (α2δ assay)
T1 construct: the α2δ subunit derived from porcine brain tissue was used; from tissue; host or cells: porcine brain tissue

[2] = test system: carrageenan-induced thermal hyperalgesia in the rat; test: Pain model: carrageenan-induced thermal hyperalgesia in the rat (plantar test); type: in vivo; settings: for Pain Model % MPE 1 h: 1 h after oral administration; for Pain Model % MPE 2h: 2 h after oral administration
Protocol: Male Sprague-Dawley rats (180-250 g) were obtained from Bantin and Kingman, (Hull, U.K.). Animals were housed in groups of 6 to 10 under a 12 hour light/dark cycle (lights on at 7 hours, 0 minutes) with food and water ad libitum.
Thermal hyperalgesia was assessed using the rat plantar test (Ugo Basile, Italy) following a modified method of Hargreaves, et al., 1988. Rats were habituated to the apparatus which consisted of three individual perspex boxes on an elevated glass table. A mobile radiant heat source located under the table was focused onto the desired paw and paw withdrawal latencies (PWL) recorded. PWL were taken 3 times for both hind paws of each animal, the mean of which represented baselines for right and left hind paws. At least 5 minutes were allowed between each PWL for an animal. The apparatus was calibrated to give a PWL of approximately 10 seconds. There was an automatic cutoff point of 20 seconds to prevent tissue damage. After baseline PWLs were determined, animals received an intraplantar injection of carrageenan (100 μL of 20 mg/mL) into the right hind paw. PWLs were reassessed following the same protocol as above 2-hour post-carrageenan (this time point represented the start of peak hyperalgesia) to ascertain that hyperalgesia had developed. Test compounds were administered orally (in a volume of 1 mL/kg) at 2.5 hours after carrageenan. PWLs were reassessed at various times after drug administration.

[3] = test system: sound-induced tonic seizures in DBA/2 mice; test: DBA2 mouse model: prevention of audiogenic seizures in DBA/2 mice; type: in vivo; design: concentration or dose not given beside the values; settings: for DBA2 Mouse Model % Protect (1h): 1h after oral dosing; for DBA2 Mouse Model % Protect (2h): 2h after oral dosing
Protocol: All procedures were carried out in compliance with the NIH Guide for the Care and Use of Laboratory Animals under a protocol approved by the Parke-Davis Animal Use Committee. Male DBA/2 mice, 3 to 4 weeks old, were obtained from Jackson Laboratories, Bar Harbour, Me. Immediately before anticonvulsant testing, mice were placed upon a wire mesh, 4 inches square suspended from a steel rod. The square was slowly inverted through 180 degrees and mice observed for 30 seconds. Any mouse falling from the wire mesh was scored as ataxic.
Mice were placed into an enclosed acrylic plastic chamber (21 cm height, approximately 30 cm diameter) with a high-frequency speaker (4 cm diameter) in the center of the top lid. An audio signal generator (Protek model B-180) was used to produce a continuous sinusoidal tone that was swept linearly in frequency between 8 kHz and 16 kHz once each 10 msec. The average sound pressure level (SPL) during stimulation was approximately 100 dB at the floor of the chamber. Mice were placed within the chamber and allowed to acclimatize for 1 minute. DBA/2 mice in the vehicle-treated group responded to the sound stimulus (applied until tonic extension occurred, or for a maximum of 60 seconds) with a characteristic seizure sequence consisting of wild running followed by clonic seizures, and later by tonic extension, and finally by respiratory arrest and death in 80% or more of the mice. In vehicle-treated mice, the entire sequence of seizures to respiratory arrest lasts approximately 15 to 20 seconds.
The incidence of all the seizure phases in the drug-treated and vehicle-treated mice was recorded, and the occurrence of tonic seizures were used for calculating anticonvulsant ED50 values by probit analysis. Mice were used only once for testing at each dose point. […] All drugs in the present study were dissolved in distilled water and given by oral gavage in a volume of 10 mL/kg of body weight. compounds that are insoluble will be suspended in 1% carboxymethocellulose. Doses are expressed as weight of the active drug moiety.

T1 sequence (A0A287BIN3 25-1109): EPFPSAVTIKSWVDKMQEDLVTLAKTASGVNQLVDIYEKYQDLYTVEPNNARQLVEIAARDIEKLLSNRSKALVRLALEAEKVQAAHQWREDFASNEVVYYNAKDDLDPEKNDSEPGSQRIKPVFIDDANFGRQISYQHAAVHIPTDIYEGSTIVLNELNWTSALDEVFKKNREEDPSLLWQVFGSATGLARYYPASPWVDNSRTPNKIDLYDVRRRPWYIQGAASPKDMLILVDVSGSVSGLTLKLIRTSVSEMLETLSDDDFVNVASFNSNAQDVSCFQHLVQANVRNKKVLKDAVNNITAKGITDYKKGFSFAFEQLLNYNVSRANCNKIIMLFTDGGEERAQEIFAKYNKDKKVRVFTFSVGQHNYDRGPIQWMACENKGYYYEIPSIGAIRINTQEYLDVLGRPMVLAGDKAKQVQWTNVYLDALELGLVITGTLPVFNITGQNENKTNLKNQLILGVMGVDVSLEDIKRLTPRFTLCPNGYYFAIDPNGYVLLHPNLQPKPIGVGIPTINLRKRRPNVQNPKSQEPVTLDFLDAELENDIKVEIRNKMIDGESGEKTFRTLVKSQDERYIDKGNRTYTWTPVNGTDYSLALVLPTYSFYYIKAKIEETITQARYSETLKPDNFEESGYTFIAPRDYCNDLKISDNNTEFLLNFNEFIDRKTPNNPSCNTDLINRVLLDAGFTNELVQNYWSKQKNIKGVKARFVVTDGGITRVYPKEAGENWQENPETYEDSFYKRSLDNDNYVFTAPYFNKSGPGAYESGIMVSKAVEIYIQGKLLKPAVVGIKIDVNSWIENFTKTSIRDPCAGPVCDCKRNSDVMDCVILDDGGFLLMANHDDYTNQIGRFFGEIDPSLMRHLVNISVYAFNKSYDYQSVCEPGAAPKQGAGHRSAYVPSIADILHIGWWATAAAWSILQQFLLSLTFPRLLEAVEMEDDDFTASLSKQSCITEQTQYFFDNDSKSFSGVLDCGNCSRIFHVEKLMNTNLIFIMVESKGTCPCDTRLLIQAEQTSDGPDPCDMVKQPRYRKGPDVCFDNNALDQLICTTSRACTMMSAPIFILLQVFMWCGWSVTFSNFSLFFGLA

Row | SMILES | IC50 [1] [nM] | Pain Model % MPE 1 h [2] [%] | Pain Model % MPE 2h [2] [%] | DBA2 Mouse Model % Protect (1h) [3] [%] | DBA2 Mouse Model % Protect (2h) [3] [%] | IC50 ([1]; read-out: α2δ Assay IC50) [nM]
1 | NCC(CC(=O)O)Cc1ccco1 (stereo not shown) | 421 | 61.6 | 24.9 | 0 | 20 | –
2 | NCC(CC(=O)O)Cc1ccsc1 (stereo not shown) | – | – | – | 40 | 60 | 831
3 | NCC(CC(=O)O)Cc1cccs1 (stereo not shown) | – | 31.9 | 18.1 | 20 | 40 | 2670
